Data taken from patent US9951028B2, “Agricultural chemicals” (REDAG CROP PROTECTION LTD, priority 2013, dated 2018).

Key:
[1] = system: garden cress, Lepidium sativum; experiment: Herbicidal efficacy screen, potter tower spray, necrosis assessed; type: in vivo
Method: (§1) Compounds 22, 23 and 24 were screened for herbicidal efficacy against target plants: garden cress, Lepidium sativum, common chickweed, Stellaria media, and white mustard […] alba Plants were obtained as seeds and were grown to the 2-4 true leaf stage. Plants were grown under laboratory conditions, individually in seed trays. Each plant (in an approximately 3 cm diameter plug) was then detached from the tray for spraying. The compounds were screened at a range of five concentrations, diluted in acetone and TweenTM. A carrier only control was also conducted. Treatments were applied directly onto the plants, using a potter tower, at a specified application rate. One plant of each species was sprayed using a potter tower. The 3 different types of plants were placed on a 10 cm diameter platform directly beneath the potter sprayer and sprayed simultaneously. The growth of the plants and any Phytotoxicity effects were then assessed at intervals over 21 days, according to EPPO guideline PP1/135. Five replicas were performed for each treatment, for each species. In the tables below C represents a percentage increase in necrosis relative to the control of 0.1-50; B represents a percentage inhibition of 50-80; and A represents a percentage inhibition of 80-100.

[2] = system: white mustard Sinapsis alba; experiment: as above; type: in vivo
Method: as §1

[3] = 50 g/ha, day 4 post application
[4] = 50 g/ha, day 5 post application
[5] = 50 g/ha, day 7 post application
[6] = 50 g/ha, day 10 post application
[7] = 100 g/ha, day 1 post application
[8] = 100 g/ha, day 2 post application
[9] = 100 g/ha, day 3 post application
[10] = 100 g/ha, day 4 post application
[11] = 100 g/ha, day 5 post application
[12] = 100 g/ha, day 7 post application
[13] = 100 g/ha, day 10 post application
[14] = 200 g/ha, day 1 post application
[15] = 200 g/ha, day 2 post application
[16] = 200 g/ha, day 3 post application
[17] = 200 g/ha, day 4 post application
[18] = 200 g/ha, day 5 post application
[19] = 200 g/ha, day 7 post application
[20] = 200 g/ha, day 10 post application

SMILES: CC(C)N(C)S(=O)(=O)NCc1cc(-n2c(=O)cc(C(F)(F)F)n(C)c2=O)c(F)cc1Cl [Compound 23, 1-[4-Chloro-2-fluoro-5-[[(isopropyl(methyl)sulfamoyl)amino]methyl]phenyl]-3-methyl-2,6-dioxo-4-(trifluoromethyl)pyrimidine]
- Average of necrosis [1, 3]: C (C represents a percentage increase in necrosis relative to the control of 0.1-50)
- Average of necrosis [1, 4]: B (B represents a percentage inhibition of 50-80)
- Average of necrosis [1, 5]: B (B represents a percentage inhibition of 50-80)
- Average of necrosis [1, 6]: B (B represents a percentage inhibition of 50-80)
- Average of necrosis [1, 7]: C (C represents a percentage increase in necrosis relative to the control of 0.1-50)
- Average of necrosis [1, 8]: C (C represents a percentage increase in necrosis relative to the control of 0.1-50)
- Average of necrosis [1, 9]: C (C represents a percentage increase in necrosis relative to the control of 0.1-50)
- Average of necrosis [1, 10]: C (C represents a percentage increase in necrosis relative to the control of 0.1-50)
- Average of necrosis [1, 11]: B (B represents a percentage inhibition of 50-80)
- Average of necrosis [1, 12]: B (B represents a percentage inhibition of 50-80)
- Average of necrosis [1, 13]: B (B represents a percentage inhibition of 50-80)
- Average of necrosis [1, 14]: C (C represents a percentage increase in necrosis relative to the control of 0.1-50)
- Average of necrosis [1, 15]: B (B represents a percentage inhibition of 50-80)
- Average of necrosis [1, 16]: B (B represents a percentage inhibition of 50-80)
- Average of necrosis [1, 17]: B (B represents a percentage inhibition of 50-80)
- Average of necrosis [1, 18]: B (B represents a percentage inhibition of 50-80)
- Average of necrosis [1, 19]: B (B represents a percentage inhibition of 50-80)
- Average of necrosis [1, 20]: B (B represents a percentage inhibition of 50-80)
- Average of necrosis ([2]; 12.5 g/ha, day 1 post application): C (C represents a percentage increase in necrosis relative to the control of 0.1-50)
- Average of necrosis ([2]; 12.5 g/ha, day 2 post application): C (C represents a percentage increase in necrosis relative to the control of 0.1-50)
- Average of necrosis ([2]; 12.5 g/ha, day 3 post application): C (C represents a percentage increase in necrosis relative to the control of 0.1-50)
- Average of necrosis ([2]; 12.5 g/ha, day 4 post application): C (C represents a percentage increase in necrosis relative to the control of 0.1-50)
- Average of necrosis ([2]; 12.5 g/ha, day 5 post application): C (C represents a percentage increase in necrosis relative to the control of 0.1-50)
- Average of necrosis ([2]; 12.5 g/ha, day 7 post application): C (C represents a percentage increase in necrosis relative to the control of 0.1-50)
- Average of necrosis ([2]; 12.5 g/ha, day 10 post application): C (C represents a percentage increase in necrosis relative to the control of 0.1-50)
- Average of necrosis ([2]; 25 g/ha, day 1 post application): C (C represents a percentage increase in necrosis relative to the control of 0.1-50)
- Average of necrosis ([2]; 25 g/ha, day 2 post application): C (C represents a percentage increase in necrosis relative to the control of 0.1-50)
- Average of necrosis ([2]; 25 g/ha, day 3 post application): C (C represents a percentage increase in necrosis relative to the control of 0.1-50)
- Average of necrosis ([2]; 25 g/ha, day 4 post application): C (C represents a percentage increase in necrosis relative to the control of 0.1-50)
- Average of necrosis ([2]; 25 g/ha, day 5 post application): C (C represents a percentage increase in necrosis relative to the control of 0.1-50)
- Average of necrosis ([2]; 25 g/ha, day 7 post application): C (C represents a percentage increase in necrosis relative to the control of 0.1-50)
- Average of necrosis ([2]; 25 g/ha, day 10 post application): C (C represents a percentage increase in necrosis relative to the control of 0.1-50)
- Average of necrosis ([2]; 50 g/ha, day 1 post application): C (C represents a percentage increase in necrosis relative to the control of 0.1-50)
- Average of necrosis ([2]; 50 g/ha, day 2 post application): C (C represents a percentage increase in necrosis relative to the control of 0.1-50)
- Average of necrosis ([2]; 50 g/ha, day 3 post application): C (C represents a percentage increase in necrosis relative to the control of 0.1-50)
- Average of necrosis [2, 3]: C (C represents a percentage increase in necrosis relative to the control of 0.1-50)
- Average of necrosis [2, 4]: C (C represents a percentage increase in necrosis relative to the control of 0.1-50)
- Average of necrosis [2, 5]: C (C represents a percentage increase in necrosis relative to the control of 0.1-50)
- Average of necrosis [2, 6]: C (C represents a percentage increase in necrosis relative to the control of 0.1-50)
- Average of necrosis [2, 7]: C (C represents a percentage increase in necrosis relative to the control of 0.1-50)
- Average of necrosis [2, 8]: C (C represents a percentage increase in necrosis relative to the control of 0.1-50)
- Average of necrosis [2, 9]: C (C represents a percentage increase in necrosis relative to the control of 0.1-50)
- Average of necrosis [2, 10]: C (C represents a percentage increase in necrosis relative to the control of 0.1-50)
- Average of necrosis [2, 11]: C (C represents a percentage increase in necrosis relative to the control of 0.1-50)
- Average of necrosis [2, 12]: C (C represents a percentage increase in necrosis relative to the control of 0.1-50)
- Average of necrosis [2, 13]: C (C represents a percentage increase in necrosis relative to the control of 0.1-50)
- Average of necrosis [2, 14]: C (C represents a percentage increase in necrosis relative to the control of 0.1-50)
- Average of necrosis [2, 15]: C (C represents a percentage increase in necrosis relative to the control of 0.1-50)
- Average of necrosis [2, 16]: C (C represents a percentage increase in necrosis relative to the control of 0.1-50)
- Average of necrosis [2, 17]: C (C represents a percentage increase in necrosis relative to the control of 0.1-50)
- Average of necrosis [2, 18]: C (C represents a percentage increase in necrosis relative to the control of 0.1-50)
- Average of necrosis [2, 19]: C (C represents a percentage increase in necrosis relative to the control of 0.1-50)
- Average of necrosis [2, 20]: C (C represents a percentage increase in necrosis relative to the control of 0.1-50)
